Structures can show the parent of a compound that is named as a salt.
Tested on: mice
Test: SmartCube in vivo neuropharmacological behavioral assay
Settings: for minimal effective dose: Mus musculus, ip, 0.25 h, dose having 50% or more total activity in SmartCube, i.p., read-out: MED (minimal effective dose); for AD: antidepressant (percent probability) / AG: analgesic (percent probability) / AP: antipsychotic (percent probability) / AX: anxiolytic (percent probability) / CE: cognitive enhancer (percent probability) / HA: hallucinogenic (percent probability) / MS: mood stabilizer (percent probability) / PS (percent probability) / SD: sedative hypnotic (percent probability) / SE: side effects (percent probability) / UN: uncharacterized CNS activity (percent probability) / XG: anxiogenic (percent probability): SmartCube, i.p. 15 min before test, result at the MED
Experimental: The compounds were evaluated for their CNS related properties (e.g., the treatment, prevention or diagnosis of CNS or CNS-related disorders and/or amelioration of symptoms) using neuropharmacological screening methods described in S. L. Roberts et al., Front. Neurosci. 2011, 5:103 (hereinafter referred to as “Roberts,” the contents of which are incorporated herein by reference in their entirety).
According to Roberts, intact systems are useful in detecting improvement in disease-relevant endpoints, because psychiatric diseases generally result from disorders of cell-cell communication or circuitry. The endpoints are typically behavioral in nature, often requiring human observation and interpretation. In order to test multiple compounds for behavioral effects relevant to neurological and psychiatric diseases and disorders, PsychoGenics, Inc. (Paramus, N.J. “PGI”) developed SmartCube®, an automated system in which behaviors of compound-treated mice are captured by digital video and analyzed with computer algorithms to facilitate testing of multiple compounds for behavioral effects relevant to psychiatric disease. (D. Brunner et al., Drug Discov. Today 2002, 7:S107-S112; Alexandrov et al., Eur. J. Pharmacol. 2015, 753:127-134; the contents of each of which are incorporated herein by reference in their entirety).
The SmartCube® system is described in Example 2.2 of U.S. Pat. No. 9,758,529 and Example 289 of WIPO Publication No. WO2018/023070, the contents of each of which are incorporated herein by reference in their entirety.
According to the present disclosure, compounds identified may be evaluated using the SmartCube® system. The results of such analysis correlate certain patterns or combinations of behaviors to CNS effects along a percent probability scale of 0-100 where zero (0) reflects the limit of quantitation (LOQ).
The compounds of the present disclosure were evaluated for their CNS related properties (e.g., the treatment, prevention or diagnosis of CNS or CNS-related disorders and/or amelioration of symptoms) using neuropharmacological screening methods described in S. L. Roberts et al., Front. Neurosci. 2011, 5:103 (hereinafter referred to as “Roberts,” the contents of which are incorporated herein by reference in their entirety).
The SmartCube® system described herein was utilized to compare the behavioral signature of a test compound to a database of behavioral signatures obtained using a large set of diverse reference compounds (including but not limited to antipsychotics, anxiolytics, antidepressants and bipolar disorder medicine), thereby predicting the neuropharmacological effects of a test compound by similarity to major classes of compounds. It produces an activity signature indicating the probability that the activity of the test compound at the administered dose matches a given class of neuropharmacological agents. The test compound is simultaneously compared against multiple classes of agents; thus, a separate probability is generated for each behavioral effect measured (such as but not limited to anxiolytic activity and analgesic activity).
The compounds of the present disclosure were dissolved in a mixture of Pharmasolve™ (N-methyl-2-pyrrolidone (NMP)) and were injected i.p. 15 min. before the behavioral test. For each compound, injections were administered at different dose levels (e.g., 0.3, 1, 3, 10 and 30 mg per kg (mpk)). A compound's minimal effective dose (MED; see Table 3) is a measure of the compound's potency. The MED was defined as the dose (in mpk) having 50% or more total activity in SmartCube®. For each behavioral effect measured, results at the MED are presented. CNS activities of the compounds were recorded (see Table 2). In Table 1, a key to the percent probabilities (probability ×100) for each behavioral effect (“X”) are defined provided, where LOQ is the limit of quantification.

Row | SMILES | minimal effective dose | AD: antidepressant (percent probability) | AG: analgesic (percent probability) | AP: antipsychotic (percent probability) | AX: anxiolytic (percent probability) | CE: cognitive enhancer (percent probability) | HA: hallucinogenic (percent probability) | MS: mood stabilizer (percent probability) | PS (percent probability) | SD: sedative hypnotic (percent probability) | SE: side effects (percent probability) | UN: uncharacterized CNS activity (percent probability) | XG: anxiogenic (percent probability)
1 | c1ccc2c(c1)C1CCCC2N1C1CC1 [Compound 15, 12-Cyclopropyl-12-azatricyclo[6.3.1.0^20.7]dodeca-2,4,6-triene hydrochloride] | 10 to 30 mg/kg | ++++ (50% ≤ X < 100%) | ++ (5% ≤ X < 25%) | + (LOQ ≤ X < 5%) | ++ (5% ≤ X < 25%) | + (LOQ ≤ X < 5%) | + (LOQ ≤ X < 5%) | + (LOQ ≤ X < 5%) | ++ (5% ≤ X < 25%) | + (LOQ ≤ X < 5%) | + (LOQ ≤ X < 5%) | + (LOQ ≤ X < 5%) | ++ (5% ≤ X < 25%)
2 | c1ccc2c(c1)CC(N1C3CCCC1c1ccccc13)C2 [Compound 11, 12-(2,3-Dihydro-1H-inden-2-yl)-12-azatricyclo[6.3.1.0^2,7]dodeca-2,4,6-triene hydrochloride] | 10 to 30 mg/kg | + (LOQ ≤ X < 5%) | ++ (5% ≤ X < 25%) | + (LOQ ≤ X < 5%) | ++ (5% ≤ X < 25%) | ++ (5% ≤ X < 25%) | + (LOQ ≤ X < 5%) | + (LOQ ≤ X < 5%) | + (LOQ ≤ X < 5%) | + (LOQ ≤ X < 5%) | + (LOQ ≤ X < 5%) | +++ (25% ≤ X < 50%) | + (LOQ ≤ X < 5%)
3 | CCC(CC)N1C2CCCC1c1ccccc12 [Compound 17, 12-(Pentan-3-yl)-12-azatricyclo[6.3.1.0^2,7]dodeca-2,4,6-trienehydrochloride] | 10 to 30 mg/kg | ++ (5% ≤ X < 25%) | + (LOQ ≤ X < 5%) | + (LOQ ≤ X < 5%) | ++ (5% ≤ X < 25%) | + (LOQ ≤ X < 5%) | + (LOQ ≤ X < 5%) | + (LOQ ≤ X < 5%) | ++++ (50% ≤ X < 100%) | + (LOQ ≤ X < 5%) | + (LOQ ≤ X < 5%) | + (LOQ ≤ X < 5%) | + (LOQ ≤ X < 5%)
4 | CC[C@H](C)N1C2CCCC1c1ccccc12 [Compound 26, 12-[(2S)-Butan-2-yl]-12-azatricyclo[6.3.1.0^2,7]dodeca-2,4,6-triene hydrochloride] | 1 to 10 mg/kg | ++++ (50% ≤ X < 100%) | + (LOQ ≤ X < 5%) | + (LOQ ≤ X < 5%) | + (LOQ ≤ X < 5%) | + (LOQ ≤ X < 5%) | ++ (5% ≤ X < 25%) | + (LOQ ≤ X < 5%) | ++ (5% ≤ X < 25%) | + (LOQ ≤ X < 5%) | + (LOQ ≤ X < 5%) | + (LOQ ≤ X < 5%) | + (LOQ ≤ X < 5%)
5 | CC(C)N1C2CCC(=O)C1c1ccccc12 (stereo not drawn) [Compound 39, hydrochloride] | > 30 mg/kg | + (LOQ ≤ X < 5%) | + (LOQ ≤ X < 5%) | + (LOQ ≤ X < 5%) | + (LOQ ≤ X < 5%) | + (LOQ ≤ X < 5%) | + (LOQ ≤ X < 5%) | + (LOQ ≤ X < 5%) | + (LOQ ≤ X < 5%) | + (LOQ ≤ X < 5%) | + (LOQ ≤ X < 5%) | + (LOQ ≤ X < 5%) | + (LOQ ≤ X < 5%)
6 | CC(C)N1C2CCC(O)C1c1ccccc12 (stereo not drawn) [Compound 27, 12-(propan-2-yl)-12-azatricyclo[6.3.1.0^2,7]dodeca-2,4,6-trien-9-ol hydrochloride] | 10 to 30 mg/kg | +++ (25% ≤ X < 50%) | ++ (5% ≤ X < 25%) | + (LOQ ≤ X < 5%) | ++ (5% ≤ X < 25%) | + (LOQ ≤ X < 5%) | ++ (5% ≤ X < 25%) | + (LOQ ≤ X < 5%) | ++ (5% ≤ X < 25%) | + (LOQ ≤ X < 5%) | + (LOQ ≤ X < 5%) | + (LOQ ≤ X < 5%) | + (LOQ ≤ X < 5%)
7 | CN1C2CCCC1c1ccccc12 [Compound 3, 12-Methyl-12-azatricyclo[6.3.1.0^2,7]dodeca-2,4,6-triene hydrochloride] | 10 to 30 mg/kg | +++ (25% ≤ X < 50%) | ++ (5% ≤ X < 25%) | + (LOQ ≤ X < 5%) | ++ (5% ≤ X < 25%) | + (LOQ ≤ X < 5%) | + (LOQ ≤ X < 5%) | + (LOQ ≤ X < 5%) | + (LOQ ≤ X < 5%) | ++ (5% ≤ X < 25%) | ++ (5% ≤ X < 25%) | ++ (5% ≤ X < 25%) | + (LOQ ≤ X < 5%)
8 | CCC(C)N1C2CC(C)CC1c1ccccc12 (stereo not drawn) [Compound 37, 12-(Butan-2-yl)-10-methyl-12-azatricyclo[6.3.1.0^2,7]dodeca-2,4,6-triene hydrochloride] | 1 to 10 mg/kg | ++ (5% ≤ X < 25%) | ++ (5% ≤ X < 25%) | + (LOQ ≤ X < 5%) | +++ (25% ≤ X < 50%) | + (LOQ ≤ X < 5%) | + (LOQ ≤ X < 5%) | + (LOQ ≤ X < 5%) | ++ (5% ≤ X < 25%) | + (LOQ ≤ X < 5%) | + (LOQ ≤ X < 5%) | + (LOQ ≤ X < 5%) | + (LOQ ≤ X < 5%)
9 | c1ccc2c(c1)C1CCCC2N1 [Compound 1, 12-Azatricyclo[6.3.1.0^2,7]dodeca-2,4,6-triene] | 10 to 30 mg/kg | ++ (5% ≤ X < 25%) | ++ (5% ≤ X < 25%) | + (LOQ ≤ X < 5%) | ++ (5% ≤ X < 25%) | +++ (25% ≤ X < 50%) | + (LOQ ≤ X < 5%) | + (LOQ ≤ X < 5%) | + (LOQ ≤ X < 5%) | + (LOQ ≤ X < 5%) | ++ (5% ≤ X < 25%) | + (LOQ ≤ X < 5%) | + (LOQ ≤ X < 5%)

Source: patent US20230116114A1, “COMPOUNDS AND COMPOSITIONS FOR TREATING CNS DISORDERS” (Blue Oak Pharmaceuticals, Inc., priority 2020, published 2023)
